Experimental data from BigSolDB 2.1.

Brc1cc(Br)cc(Br)c1
solubility (mole fraction)
Conditions	288.15 K	293.15 K	298.15 K	303.15 K	308.15 K	313.15 K	318.15 K	323.15 K	328.15 K
in 1,4-dioxane	0.0656	0.0742	0.0851	0.0972	0.111	0.123	0.141	0.157	0.178
in DMAc	0.0159	0.0195	0.024	0.0292	0.0346	0.041	0.0491	0.0582	0.0683
in DMF	0.00998	0.0127	0.0161	0.0202	0.0244	0.0295	0.0355	0.044	0.0521
